pKd: −log10 of the molar value.

Sequence of Cytochrome P450 2E1 (P05181 whole entry): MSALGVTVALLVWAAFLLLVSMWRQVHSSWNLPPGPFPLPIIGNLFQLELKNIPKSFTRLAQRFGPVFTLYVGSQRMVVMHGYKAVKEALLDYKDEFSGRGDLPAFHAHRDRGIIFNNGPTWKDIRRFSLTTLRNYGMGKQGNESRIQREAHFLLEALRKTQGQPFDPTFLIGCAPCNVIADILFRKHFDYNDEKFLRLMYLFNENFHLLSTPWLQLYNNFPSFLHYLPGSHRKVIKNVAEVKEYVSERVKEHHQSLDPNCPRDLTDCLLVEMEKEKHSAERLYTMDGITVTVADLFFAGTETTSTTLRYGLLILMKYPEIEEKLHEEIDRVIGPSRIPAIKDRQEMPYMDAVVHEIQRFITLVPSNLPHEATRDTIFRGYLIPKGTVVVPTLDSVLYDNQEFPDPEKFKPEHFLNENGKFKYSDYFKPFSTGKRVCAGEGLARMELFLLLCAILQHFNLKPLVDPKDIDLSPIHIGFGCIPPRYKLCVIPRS

The target of this experiment is Cytochrome P450 2E1 (Homo sapiens, UniProt P05181). The experiment is described as follows: Spectral Binding Assay. An excerpt:
All UV/Vis spectra of the enzyme-ligand complexes were obtained on a Cary 5000 UV/Vis spectrophotometer.
In turn, `CCCCCCOC(=O)c1cccnc1` [Auxiliary substrate, 1a] gave a negative-log Kd (pKd) of 5.85.
Compound `CCC(C)CCOC(=O)c1cccnc1` (stereo not drawn) [Auxiliary substrate, 10a] showed a pKd of 5.59.
For `CC(C)CCCCOC(=O)c1cccnc1` [Auxiliary substrate, 11a] the value was 5.74; for `CCCCCOC(=O)c1cccnc1` [Auxiliary substrate, 12a], 5.23; for `CCCCCCCCOC(=O)c1cccnc1` [Auxiliary substrate, 14a], 5.68.
For `CC/C=C/CCOC(=O)c1cccnc1` [Auxiliary substrate, 16a] the value was 5.89; for `C=CCCOC(=O)c1cccnc1` [Auxiliary substrate, 18a], 4.92.
`O=C(OCC1CCCC1)c1cccnc1` [Auxiliary substrate, 20a] had a pKd of 5.80.

Broadly, the pKd is the negative decadic logarithm of the Kd, by convention in mol/L. Lower therefore signals a large Kd.

The record behind these values is BindingDB's records for doi:10.1002/cbic.201200524 (Mcgill University, 2012).
